Data reported in patent publication US6096874A (Board of Regents, the University of Texas System, priority 1995, dated 2000).

Assays:
[1] = Biodistribution in estradiol-primed or unprimed female Sprague-Dawley rats; format: in vivo, rat
Experimental: Four groups of rats (150-200 gm, N=4/group) were anesthetized with ketamine (10-15 mg/rat). […]. Tissue uptake of ^18 F-tracer was determined at 2 and 4 hours (h). To ascertain whether the ^18 F-tracer uptake was mediated by a receptor-process, one group of rats was given ^18 F-tracer without priming with estradiol; and another group of rats was given unlabeled estradiol (30 μg/rat) together with ^18 F-tracer. […].
The inventors first determined the in vivo tissue distribution of [^18 F-FTX] in rats. Specifically, four groups of female Sprague-Dawley rats (N=4/group, 200-250 gm; obtained from Harlan Inc., Indianapolis, Ind.) were anesthetized with ketamine (10-15 mg/rat). […]. The tissue distribution was studied at 2 hour and 4 hour intervals.

uterus and ovaries = assay: PET imaging of pig uterus and ovaries and blood clearance in pigs; format: in vivo; conditions: for Uterus/ovary uptake in PET image (in words): 1 h postinjection
Experimental: PET imaging was performed on four domestic female pigs (30 lb) with a positron camera (Positron Corporation, Houston, Tex). Each pig was supine in the scanner so that the detector rings would span the entire pelvic region. Prior to scanning, the position of the uterus and ovaries was determined by hysterosalpingography. Fifteen milliliters of radiopaque (Renografin 76 Squibb Diagnostic, New Brunswick, N.J.) was injected through the vagina into the uterus via a 5 Fr catheter with the balloon inflated by 1 ml of air. Radiographs of the pelvis in the anterior-posterior projection were taken. The location of the uterus was marked permanently on the skin of each pig for positioning in the PET camera.
A 20 min attenuation scan was performed with a 4 mCi ^68 Ge-ring source prior to tracer injection. After each pig received 10 mCi of [^18 F]FTX, […] consecutive 10 min scans were acquired. There was a 5 min wait between scans for data transfer. […] In order to examine the blood clearance profile of [^18 F]FTX, venous blood samples (0.5 ml) were collected every minute for the first ten minutes, followed by every ten minutes up to two hours. Serial transaxial images of the pelvic region were performed in order to view the uterus. The tomograph has a field-of-view of t42 cm on transverse and 12 cm on coronal planes. The axial resolution on the reconstructed plane is 1.2 cm.

breast tumors = assay: PET imaging of ER+ breast tumors in patients; format: in vivo, human
Experimental: This example describes a ligand for imaging ER (+) breast tumors by positron emission tomography (PET) or single photon emission computed tomography (SPECT).
PET imaging was performed on three breast cancer patients (age 54±3) (ER+) with a positron camera (Positron Corporation, Houston, Tex.). Each patient was positioned supine in the scanner so that the detector rings would span the entire breast cancer region. A 20-min attenuation scan was performed with a 4 mCi [^68 Ge]-ring source prior to [^18 F]FTX. After each patient received 4 mCi of {^18 F]FTX, six consecutive 20 min scans were acquired. Serial transaxial images were performed. The tomograph has a field-of-view of 42 cm on transverse and 12 cm on coronal plans. The axial resolution on the reconstructed plan is 1.2 cm. […] The SUV value is generated using a dedicated computer.

[2] = 2 h, blocked with estradiol 30 μg, listed as 18 Ftracer, 120 min
[3] = 2 h, blocked with estradiol 30 μg, listed as N,N-DIETHYL-[^18 F]FLUOROMETHYLTAMOXIFEN, 120 min
[4] = 2 h, estradiol-primed, listed as 18 Ftracer, 120 min
[5] = 2 h, not primed, listed as 18 Ftracer, 120 min
[6] = 2 h, not primed, listed as N,N-DIETHYL-[^18 F]FLUOROMETHYLTAMOXIFEN, 120 min
[7] = 4 h, estradiol-primed, listed as 18 Ftracer, 240 min

With CCN(CC)CCOc1ccc(/C(=C(/CCC[18F])c2ccccc2)c2ccccc2)cc1 [[^18 F]FTX, (trans)[^18 F]Fluoromethyl-N,N-diethyltamoxifen] the Blood uptake [1, 2] was 0.048 % OF INJECTED DOSE/GRAM OF TIS, the Bone uptake [1, 2] was 0.576 % OF INJECTED DOSE/GRAM OF TIS and the Intestine uptake [1, 2] was 0.742 % OF INJECTED DOSE/GRAM OF TIS. For the same molecule, the Liver uptake [1, 2] was 4.451 % OF INJECTED DOSE/GRAM OF TIS, the Muscle uptake [1, 2] was 0.145 % OF INJECTED DOSE/GRAM OF TIS and the Uterus uptake [1, 2] was 0.297 % OF INJECTED DOSE/GRAM OF TIS. For the same molecule, the Blood uptake [1, 3] was 0.048 % OF INJECTED DOSE/GRAM OF TISSUE WEIGHT, the Bone uptake [1, 3] was 0.576 % OF INJECTED DOSE/GRAM OF TISSUE WEIGHT and the Intestine uptake [1, 3] was 0.742 % OF INJECTED DOSE/GRAM OF TISSUE WEIGHT. For the same molecule, the Liver uptake [1, 3] was 4.451 % OF INJECTED DOSE/GRAM OF TISSUE WEIGHT, the Muscle uptake [1, 3] was 0.145 % OF INJECTED DOSE/GRAM OF TISSUE WEIGHT and the Uterus uptake [1, 3] was 0.297 % OF INJECTED DOSE/GRAM OF TISSUE WEIGHT. For the same molecule, the Blood uptake [1, 4] was 0.033 % OF INJECTED DOSE/GRAM OF TIS, the Bone uptake [1, 4] was 0.653 % OF INJECTED DOSE/GRAM OF TIS and the Intestine uptake [1, 4] was 0.917 % OF INJECTED DOSE/GRAM OF TIS. The Kidney uptake [1, 4] was 0.742 % OF INJECTED DOSE/GRAM OF TIS, the Liver uptake [1, 4] was 4.540 % OF INJECTED DOSE/GRAM OF TIS and the Muscle uptake [1, 4] was 0.151 % OF INJECTED DOSE/GRAM OF TIS. For the same molecule, the Uterus uptake [1, 4] was 0.426 % OF INJECTED DOSE/GRAM OF TIS, the Bone uptake ([1]; 2 h, estradiol-primed, listed as [^18 F]fluoro analogue of tamoxifen, 120 min) was 0.65 % OF INJECTED DOSE/GRAM OF TIS and the Blood uptake [1, 5] was 0.033 % OF INJECTED DOSE/GRAM OF TIS. For the same molecule, the Bone uptake [1, 5] was 0.644 % OF INJECTED DOSE/GRAM OF TIS, the Intestine uptake [1, 5] was 0.504 % OF INJECTED DOSE/GRAM OF TIS and the Kidney uptake [1, 5] was 0.530 % OF INJECTED DOSE/GRAM OF TIS. The Liver uptake [1, 5] was 3.849 % OF INJECTED DOSE/GRAM OF TIS, the Muscle uptake [1, 5] was 0.109 % OF INJECTED DOSE/GRAM OF TIS and the Uterus uptake [1, 5] was 0.248 % OF INJECTED DOSE/GRAM OF TIS. For the same molecule, the Blood uptake [1, 6] was 0.033 % OF INJECTED DOSE/GRAM OF TISSUE WEIGHT, the Bone uptake [1, 6] was 0.644 % OF INJECTED DOSE/GRAM OF TISSUE WEIGHT and the Intestine uptake [1, 6] was 0.504 % OF INJECTED DOSE/GRAM OF TISSUE WEIGHT. For the same molecule, the Kidney uptake [1, 6] was 0.530 % OF INJECTED DOSE/GRAM OF TISSUE WEIGHT, the Liver uptake [1, 6] was 3.849 % OF INJECTED DOSE/GRAM OF TISSUE WEIGHT and the Muscle uptake [1, 6] was 0.109 % OF INJECTED DOSE/GRAM OF TISSUE WEIGHT. The Uterus uptake [1, 6] was 0.248 % OF INJECTED DOSE/GRAM OF TISSUE WEIGHT, the Blood uptake [1, 7] was 0.045 % OF INJECTED DOSE/GRAM OF TIS and the Bone uptake [1, 7] was 0.802 % OF INJECTED DOSE/GRAM OF TIS. For the same molecule, the Intestine uptake [1, 7] was 1.101 % OF INJECTED DOSE/GRAM OF TIS, the Kidney uptake [1, 7] was 0.796 % OF INJECTED DOSE/GRAM OF TIS and the Liver uptake [1, 7] was 4.205 % OF INJECTED DOSE/GRAM OF TIS. The Muscle uptake [1, 7] was 0.183 % OF INJECTED DOSE/GRAM OF TIS, the Uterus uptake [1, 7] was 0.400 % OF INJECTED DOSE/GRAM OF TIS and the Bone uptake ([1]; 4 h, estradiol-primed, listed as [^18 F]fluoro analogue of tamoxifen, 240 min) was 0.80 % OF INJECTED DOSE/GRAM OF TIS. The “Time to clearance from the blood stream” value (uterus and ovaries; 10 mCi i.v., pig) was no more than 10 min, the “Uterus/ovary uptake in PET image (in words)” value (from here on “Uterus/ovary uptake”) (uterus and ovaries; 10 mCi i.v.) was “increased uptake could be blocked after pretreatment with DES” and the “Uterus/ovary uptake” value (uterus and ovaries; 10 mCi i.v., listed as 18 F-tamoxifen) was “can be blocked with DES”. The “Uterus/ovary uptake” value (uterus and ovaries; 10 mCi i.v., listed as 18 F-tracer) was “increased uptake could be blocked after pretreatment with diethylstilbestrol”, the “Target organ binding (in words)” value (uterus and ovaries; 30 minutes to 2 hours post-administration, pig) was “constant” and the SUV (breast tumors; patient 1, left axilla) was 0.7. It also gave an SUV (breast tumors; patient 2, mediastinum) of 1.8, an SUV (breast tumors; patient 3, left axilla) of 2.6 and an SUV (breast tumors; patient 3, right axilla) of 2.2. The SUV (breast tumors; patient 3, right breast) was 1.6, the SUV (breast tumors; patient 3, spine) was 3.0 and the “SUV of breast tumors” value (breast tumors; three patients, 4 mCi) was 2-5. For the same molecule, the “SUV in tumor of patients responding well to tamoxifen therapy” value (breast tumors; three patients, listed as 18 F-tamoxifen) was greater than 2.4 and the “SUV in tumor of patients responding well to tamoxifen therapy” value (breast tumors; three patients, listed as [^18 F]fluorotamoxifen) was “more than 2.4”.
